Reference: patent US4086417A, “Cytidine nucleotide derivatives” (Asahi Kasei Kogyo Kabushiki Kaisha, priority 1974, dated 1978)
Converted amounts (≈) assume the structure as drawn.

How the values were obtained:
[1] = Solubility test: solubility in water; format: physicochemical
Text: In the aforesaid examples, the products were obtained as white solids.
In Table 1, -Ara-C means "-1-β-D-arabinofuranosylcytosine" and -5'-Pna and -5'-PNa2 mean "-1-β-D-arabinofuranosylcytosine-5'-phosphate monosodium salt" and "-1-β-D-arabinofuranosylcytosine-5'-phosphate disodium salt," respectively.

leukemia L-1210 = assay: Antitumour activity in mice inoculated intraperitoneally with leukemia L-1210 (survival, T/C); format: in vivo, CDF-1 male mice; conditions: Mus musculus, L1210, ip, directly after injection of L-1210, after 2 days and after 6 days; for response vs control in vivo at 100 mg/kg: 100 mg/kg i.p.; for response vs control in vivo at 200 mg/kg: 200 mg/kg i.p.; for response vs control in vivo at 400 mg/kg: 400 mg/kg i.p.
Protocol: The antitumour activity for mice of the test material was evaluated by means of survival rate comparison, T/C (%), that is, 100 times the mean survival period of the groups injected with the test material divided by the mean survival period of the comparison groups which were not injected with the test material.
Further, for comparison, the following materials were also subjected to the same biological test: […]

Solubility in water [1] [µg/mL] | solubility [1] [µg/mL] | Compound | response vs control in vivo at 100 mg/kg (leukemia L-1210) [%] | response vs control in vivo at 200 mg/kg (leukemia L-1210) [%] | response vs control in vivo at 400 mg/kg (leukemia L-1210) [%]
> 10000 |  | O=C(Nc1ccn([C@@H]2O[C@H](COP(=O)(O)O)[C@@H](O)[C@@H]2O)c(=O)n1)C12CC3CC(CC(C3)C1)C2 [N^4 -Adamantoyl-5'-PNa2] |  |  | 
2000 |  | O=C(Nc1ccn([C@@H]2O[C@H](COP(=O)(O)O)[C@@H](O)[C@@H]2O)c(=O)n1)C12CC3CC(CC(C3)C1)C2 [N^4 -Adamantoyl-5'-PNa, N^4-adamantoyl-1-β-D-arabinofuranosylcytosine-5'-phosphate monosodium] |  |  | 
 | 10 (≈ 24.7 µM) | O=C(Nc1ccn([C@@H]2O[C@H](CO)[C@@H](O)[C@@H]2O)c(=O)n1)C12CC3CC(CC(C3)C1)C2 [N^4 -Adamantoyl-Ara-C] |  |  | 
 |  | CCCCCCCCCC(=O)Nc1ccn([C@@H]2O[C@H](CO)[C@@H](O)[C@@H]2O)c(=O)n1 [N^4 -Capryl-Ara-C] | 159 | 188 | > 284
 |  | CCCCCCCC(=O)Nc1ccn([C@@H]2O[C@H](COP(=O)(O)O)[C@@H](O)[C@@H]2O)c(=O)n1 [N^4 -Caprylyl-5'-PNa] | 103 | 101 | 99
 |  | CCCCCCCC(=O)Nc1ccn([C@@H]2O[C@H](CO)[C@@H](O)[C@@H]2O)c(=O)n1 [N^4 -Caprylyl-Ara-C] | 123 | 127 | 163
 |  | CCCCCCCCCCCC(=O)Nc1ccn([C@@H]2O[C@H](COP(=O)(O)O)[C@@H](O)[C@@H]2O)c(=O)n1 [N^4 -Lauroyl-5'-PNa] | 110 | 115 | 115
 |  | CCCCC/C=C\C/C=C\CCCCCCCC(=O)Nc1ccn([C@@H]2O[C@H](COP(=O)(O)O)[C@@H](O)[C@@H]2O)c(=O)n1 [N^4 -Linoleoyl-5'-PNa] | 275 | 145 | 120
 |  | CCCCC/C=C\C/C=C\CCCCCCCC(=O)Nc1ccn([C@@H]2O[C@H](CO)[C@@H](O)[C@@H]2O)c(=O)n1 [N^4 -Linoleoyl-Ara-C] | 268 | 140 | 112
> 50000 |  | CCCCCCCCCCCCCCCCC(=O)Nc1ccn([C@@H]2O[C@H](COP(=O)(O)O)[C@@H](O)[C@@H]2O)c(=O)n1 [N^4 -Margaroyl-5'-PNa2] |  |  | 
> 10000 |  | CCCCCCCCCCCCCCCCC(=O)Nc1ccn([C@@H]2O[C@H](COP(=O)(O)O)[C@@H](O)[C@@H]2O)c(=O)n1 [N^4 -Margaroyl-5'-PNa, N^4-margaroyl-1-β-D-arabinofuranosylcytosine-5'-phosphate monosodium] | > 395 | > 382 | 101
 | < 10 | CCCCCCCCCCCCCCCCC(=O)Nc1ccn([C@@H]2O[C@H](CO)[C@@H](O)[C@@H]2O)c(=O)n1 [N^4 -Margaroyl-Ara-C] | > 397 | 188 | 99
> 5000 |  | CCCCCCCCCCCCCCCCCCCCCCCCCCCC(=O)Nc1ccn([C@@H]2O[C@H](COP(=O)(O)O)[C@@H](O)[C@@H]2O)c(=O)n1 [N^4 -Montanoyl-5'-PNa2] |  |  | 
1000 |  | CCCCCCCCCCCCCCCCCCCCCCCCCCCC(=O)Nc1ccn([C@@H]2O[C@H](COP(=O)(O)O)[C@@H](O)[C@@H]2O)c(=O)n1 [N^4 -Montanoyl-5'-PNa, N^4-montanoyl-1-β-D-arabinofuranosylcytosine-5'-phosphate monosodium] |  |  | 
 | < 10 | CCCCCCCCCCCCCCCCCCCCCCCCCCCC(=O)Nc1ccn([C@@H]2O[C@H](CO)[C@@H](O)[C@@H]2O)c(=O)n1 [N^4 -Montanoyl-Ara-C] |  |  | 
 |  | CCCCCCCCCCCCCC(=O)Nc1ccn([C@@H]2O[C@H](COP(=O)(O)O)[C@@H](O)[C@@H]2O)c(=O)n1 [N^4 -Myristoyl-5'-PNa, N^4 -Myristoyl-1-β-D-arabinofuranosylcytosine-5'-phosphate monosodium] | > 219 | > 261 | 93
 |  | CCCCCCCCCCCCCC(=O)Nc1ccn([C@@H]2O[C@H](CO)[C@@H](O)[C@@H]2O)c(=O)n1 [N^4 -Myristoyl-Ara-C, N^4-myristoyl-1-β-D-arabinofuranosylcytosine] | 206 | 127 | 90
